Source: ChEMBL document CHEMBL5046215, “Heparan Sulfate Mimetics Differentially Affect Homologous Chemokines and Attenuate Cancer Development” (J Med Chem, 2021)
Active and inactive are the calls of the source. The rule behind the calls is not given here.

Experiments:
Homo sapiens [1] = species on record: Homo sapiens; assay: Binding affinity to human CCL13 at 100 uM by glycan microarray analysis
Homo sapiens [2] = species on record: Homo sapiens; assay: Binding affinity to human CCL28 at 100 uM by glycan microarray analysis
[3] = target: Interleukin-8 (Homo sapiens) (UniProt P10145); assay: Binding affinity to human CXCL8 at 100 uM by glycan microarray analysis
[4] = target: T1, C-C motif chemokine 5 (Homo sapiens) (UniProt P13501); assay: Binding affinity to human CCL5 at 100 uM by glycan microarray analysis
T1 sequence (whole entry): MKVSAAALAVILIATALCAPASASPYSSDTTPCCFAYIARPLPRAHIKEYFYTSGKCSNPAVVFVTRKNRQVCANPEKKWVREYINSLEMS

[5] = target: C-C motif chemokine 7 (Homo sapiens) (UniProt P80098); assay: Binding affinity to human CCL7 at 100 uM by glycan microarray analysis
[6] = target: C-X-C motif chemokine 10 (Homo sapiens) (UniProt P02778); assay: Binding affinity to human CXCL10 at 100 uM by glycan microarray analysis
Homo sapiens [7] = species on record: Homo sapiens; assay: Binding affinity to human CCL21 at 100 uM by glycan microarray analysis
[8] = target: T2, Stromal cell-derived factor 1 (Homo sapiens, UniProt P48061); assay: Binding affinity to human CXCL12 at 100 uM by glycan microarray analysis
C-C motif chemokine 2 [9] = target: T3, C-C motif chemokine 2 (Homo sapiens, UniProt P13500); assay: Binding affinity to human CCL2 at 100 uM by glycan microarray analysis
Target sequence in this assay (P13500 24-99 limits assumed): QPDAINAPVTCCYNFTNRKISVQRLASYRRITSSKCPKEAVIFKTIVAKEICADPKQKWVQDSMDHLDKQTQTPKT

C-C motif chemokine 2 [10] = target: T3, C-C motif chemokine 2; assay: Binding affinity to human CCL2 assessed as dissociation constant incubated for 3 mins by surface plasmon resonance analysis
Target sequence in this assay (P13500 whole entry): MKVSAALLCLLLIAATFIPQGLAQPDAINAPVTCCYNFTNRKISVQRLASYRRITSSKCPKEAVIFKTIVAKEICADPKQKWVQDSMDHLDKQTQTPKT

C-C motif chemokine 2 [11] = target: T3, C-C motif chemokine 2; assay: Binding affinity to human CCL2 assessed as on-rate constant incubated for 3 mins by surface plasmon resonance analysis
Target sequence in this assay (P13500 24-99 limits assumed): as the sequence (P13500 24-99 limits assumed) above

C-C motif chemokine 2 [12] = target: T3, C-C motif chemokine 2; assay: Binding affinity to human CCL2 assessed as off-rate constant incubated for 3 mins by surface plasmon resonance analysis
Target sequence in this assay (P13500 24-99 limits assumed): as above

C-C motif chemokine 5 = target: T4, C-C motif chemokine 5 (Homo sapiens, UniProt P13501); assay: Binding affinity to human CCL5 assessed as dissociation constant incubated for 3 mins by surface plasmon resonance analysis
T4 sequence (P13501 whole entry): T1 sequence (whole entry)

[13] = target: T1, C-C motif chemokine 5 (Homo sapiens); assay: Binding affinity to human CCL5 assessed as on-rate constant incubated for 3 mins by surface plasmon resonance analysis
[14] = target: T1, C-C motif chemokine 5 (Homo sapiens); assay: Binding affinity to human CCL5 assessed as off-rate constant incubated for 3 mins by surface plasmon resonance analysis
Interleukin-8 = target: T5, Interleukin-8 (Homo sapiens, UniProt P10145); assay: Binding affinity to human CXCL8 assessed as dissociation constant incubated for 3 mins by surface plasmon resonance analysis
T5 sequence (P10145 whole entry): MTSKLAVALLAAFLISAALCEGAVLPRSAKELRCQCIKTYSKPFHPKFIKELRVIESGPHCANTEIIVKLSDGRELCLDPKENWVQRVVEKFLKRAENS

[15] = target: T2, Stromal cell-derived factor 1; assay: Binding affinity to human CXCL12 assessed as dissociation constant incubated for 3 mins by surface plasmon resonance analysis
[16] = target: Interleukin-8 (Homo sapiens) (UniProt P10145); assay: Binding affinity to human CXCL8 assessed as on-rate constant incubated for 3 mins by surface plasmon resonance analysis
[17] = target: Interleukin-8 (Homo sapiens) (UniProt P10145); assay: Binding affinity to human CXCL8 assessed as off-rate constant incubated for 3 mins by surface plasmon resonance analysis
C-X-C motif chemokine 10 = target: T6, C-X-C motif chemokine 10 (Homo sapiens, UniProt P02778); assay: Binding affinity to human CXCL10 assessed as dissociation constant incubated for 3 mins by surface plasmon resonance analysis
T6 sequence (P02778 whole entry): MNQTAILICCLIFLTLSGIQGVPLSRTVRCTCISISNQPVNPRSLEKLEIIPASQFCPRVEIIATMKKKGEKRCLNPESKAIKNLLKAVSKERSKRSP

MCF7 [18] = assay: Induction of cell cycle arrest in human MCF7 cells assessed as accumulation of cells at G2/M phase incubated for 72 hrs in presence of CCL2 by PI staining based flow cytometric analysis; type: functional
MCF7 [19] = assay: Anti-proliferative activity against human MCF7 cells assessed as reduction in cell proliferation at 10 to 50 ug/ml compound pretreated with CCL2 followed by incubation with cells and measured after 48 hrs by Sulforhodamine B staining based WST assay; type: functional; conditions: dose 10-50 µg/ml, at 10 to 50 µg/mL
MDA-MB-231 = assay: Anti-proliferative activity against human MDA-MB-231 cells assessed as reduction in cell proliferation at 10 to 50 ug/ml compound pretreated with CCL2 followed by incubation with cells and measured after 48 hrs by Sulforhodamine B staining based WST assay; type: functional; conditions: dose 10-50 µg/ml, at 10 to 50 µg/mL
MCF7 [20] = assay: Antimigratory activity against human MCF7 cells assessed as reduction in cell migration at 10 to 50 ug/ml measured after 5 hrs in presence of CCL2 by wound healing assay relative to control; type: functional; conditions: dose 10-50 µg/ml
MCF7 [21] = assay: Antiinvasive activity against human MCF7 cells assessed as inhibition of cell invasion at 50 ug/ml measured after 24 hrs in presence of CCL2 by crystal violet staining based Boyden chamber analysis; type: functional; conditions: dose 50.0 µg/ml
MCF7 [22] = assay: Decrease in MAPK expression in human MCF7 cells at 50 ug/ml measured after 30 mins in presence of CCL2 by Western blot analysis; type: functional, cell-based; conditions: dose 50.0 µg/ml

Sequence of C-C motif chemokine 7 (Homo sapiens) (P80098 whole entry): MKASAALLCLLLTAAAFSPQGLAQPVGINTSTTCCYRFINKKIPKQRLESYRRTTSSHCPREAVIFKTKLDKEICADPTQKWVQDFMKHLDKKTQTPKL
T2 sequence (P48061 whole entry): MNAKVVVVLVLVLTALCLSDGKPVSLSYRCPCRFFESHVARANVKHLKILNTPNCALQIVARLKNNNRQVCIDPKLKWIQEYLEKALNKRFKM

SMILES | Activity (Homo sapiens [1]) [%] | Activity (Homo sapiens [2]) [%] | Activity [3] [%] | Activity [4] [%] | Activity [5] [%] | Activity [6] [%] | Activity (Homo sapiens [7]) [%] | Activity [8] [%] | Activity (C-C motif chemokine 2 [9]) [%] | further results
NCCOCCO[C@@H]1O[C@@H](C(=O)O)[C@@H](O[C@@H]2O[C@@H](C(=O)O)[C@@H](O)[C@H](O)[C@H]2O)[C@H](O)[C@H]1O | 82 | 58 | 12 | 2 | 30 | 45 | 63 | 66 | 2 | 
NCCOCCO[C@@H]1O[C@@H](C(=O)O)[C@@H](O[C@@H]2O[C@@H](C(=O)O)[C@@H](O[C@@H]3O[C@@H](C(=O)O)[C@@H](O[C@@H]4O[C@@H](C(=O)O)[C@@H](O)[C@H](O)[C@H]4O)[C@H](O)[C@H]3O)[C@H](O)[C@H]2O)[C@H](O)[C@H]1O | 67 | 56 | 12 | 2 | 33 | 44 | 48 | 56 | 2 | 
NCCOCCO[C@@H]1O[C@@H](C(=O)O)[C@@H](O)[C@H](O)[C@H]1O | 74 | 46 | 17 | 2 | 30 | 47 | 52 | 62 | 4 | 
NCCOCCO[C@@H]1O[C@@H](C(=O)O)[C@@H](O[C@@H]2O[C@@H](C(=O)O)[C@@H](O[C@@H]3O[C@@H](C(=O)O)[C@@H](OS(=O)(=O)O)[C@H](O)[C@H]3O)[C@H](O)[C@H]2O)[C@H](O)[C@H]1O | 86 | 80 | 63 | 30 | 75 | 78 | 83 | 92 | 36 | 
NCCOCCO[C@@H]1O[C@@H](C(=O)O)[C@@H](O[C@@H]2O[C@@H](C(=O)O)[C@@H](O[C@@H]3O[C@@H](C(=O)O)[C@@H](O[C@@H]4O[C@@H](C(=O)O)[C@@H](OS(=O)(=O)O)[C@H](O)[C@H]4O)[C@H](O)[C@H]3O)[C@H](O)[C@H]2O)[C@H](O)[C@H]1O | 72 | 54 | 13 | 10 | 12 | 23 | 60 | 45 | 0 | Activity (MCF7 [20]): inactive
NCCOCCO[C@@H]1O[C@@H](C(=O)O)[C@@H](O[C@@H]2O[C@@H](C(=O)O)[C@@H](O[C@@H]3O[C@@H](C(=O)O)[C@@H](O)[C@H](O)[C@H]3O)[C@H](O)[C@H]2O)[C@H](O)[C@H]1O | 69 | 72 | 5 | 1 | 17 | 24 | 46 | 38 | 0 | 
NCCOCCO[C@@H]1O[C@@H](C(=O)O)[C@@H](OS(=O)(=O)O)[C@H](O)[C@H]1O | 81 | 80 | 62 | 15 | 58 | 57 | 62 | 64 | 23 | 

Further lines, with some results ahead:

Activity (Homo sapiens [1]) [%] | Activity (Homo sapiens [2]) [%] | Activity [3] [%] | Activity [4] [%] | Activity [5] [%] | Activity [6] [%] | Activity (Homo sapiens [7]) [%] | Activity [8] [%] | Activity (C-C motif chemokine 2 [9]) [%] | SMILES | further results
67 | 84 | 95 | 80 | 79 | 74 | 80 | 82 | 67 | NCCOCCO[C@@H]1O[C@@H](C(=O)O)[C@@H](O[C@@H]2O[C@@H](C(=O)O)[C@@H](O[C@@H]3O[C@@H](C(=O)O)[C@@H](OS(=O)(=O)O)[C@H](O)[C@H]3OS(=O)(=O)O)[C@H](O)[C@H]2OS(=O)(=O)O)[C@H](O)[C@H]1OS(=O)(=O)O | 
88 | 76 | 83 | 86 | 87 | 96 | 86 | 98 | 69 | NCCOCCO[C@@H]1O[C@@H](C(=O)O)[C@@H](O[C@@H]2O[C@@H](C(=O)O)[C@@H](OS(=O)(=O)O)[C@H](O)[C@H]2OS(=O)(=O)O)[C@H](O)[C@H]1OS(=O)(=O)O | 
53 | 51 | 71 | 75 | 94 | 82 | 79 | 75 | 66 | NCCOCCO[C@@H]1O[C@@H](C(=O)O)[C@@H](OS(=O)(=O)O)[C@H](O)[C@H]1OS(=O)(=O)O | 
70 | 72 | 96 | 91 | 80 | 87 | 50 | 91 | 88 | NCCOCCO[C@@H]1O[C@@H](C(=O)O)[C@@H](O[C@@H]2O[C@@H](C(=O)O)[C@@H](O[C@@H]3O[C@@H](C(=O)O)[C@@H](O[C@@H]4O[C@@H](C(=O)O)[C@@H](OS(=O)(=O)O)[C@H](O)[C@H]4OS(=O)(=O)O)[C@H](O)[C@H]3OS(=O)(=O)O)[C@H](O)[C@H]2OS(=O)(=O)O)[C@H](O)[C@H]1OS(=O)(=O)O | Kd (C-C motif chemokine 2 [10]): 1.67 µM; K (C-C motif chemokine 2 [11]): 1.26 10^5/M/s; K (C-C motif chemokine 2 [12]): 2.1 10^-1/s; Kd (C-C motif chemokine 5): 5.72 µM; K [13]: 4.2 10^4/M/s; K [14]: 2.4 10^-1/s; Kd (Interleukin-8): 9.34 µM; Kd [15]: 18.8 µM; K [16]: 3.16 10^5/M/s; K [17]: 2.96 10^-1/s; Kd (C-X-C motif chemokine 10): 19.5 µM; Activity (MCF7 [18]): 19%; inhibition (INH) (MCF7 [19]): 40%; inhibition (INH) (MDA-MB-231): 40%; inhibition (INH) (MCF7 [20]; at 10 to 50 µg/mL): 34%; Activity (MCF7 [21]): Active; inhibition (MCF7 [22]): Active
94 | 84 | 73 | 38 | 55 | 67 | 71 | 79 | 25 | NCCOCCO[C@@H]1O[C@@H](C(=O)O)[C@@H](O[C@@H]2O[C@@H](C(=O)O)[C@@H](OS(=O)(=O)O)[C@H](O)[C@H]2O)[C@H](O)[C@H]1O | 
